In patent publication US20060063711A1, “Use of sglt homolog” (priority 2002, published 2006):

Key:
[1] = biological target: T1, human SGLT2 (hSGLT2) (Homo sapiens, UniProt P31639); test: α-methyl glucose uptake in CHO cells expressing hSGLT2; type: cell-based; details: control = NMDG without NaCl
T1 construct: expressed in transfected cells; host or cells: CHO cells
T1 sequence (P31639 1-672): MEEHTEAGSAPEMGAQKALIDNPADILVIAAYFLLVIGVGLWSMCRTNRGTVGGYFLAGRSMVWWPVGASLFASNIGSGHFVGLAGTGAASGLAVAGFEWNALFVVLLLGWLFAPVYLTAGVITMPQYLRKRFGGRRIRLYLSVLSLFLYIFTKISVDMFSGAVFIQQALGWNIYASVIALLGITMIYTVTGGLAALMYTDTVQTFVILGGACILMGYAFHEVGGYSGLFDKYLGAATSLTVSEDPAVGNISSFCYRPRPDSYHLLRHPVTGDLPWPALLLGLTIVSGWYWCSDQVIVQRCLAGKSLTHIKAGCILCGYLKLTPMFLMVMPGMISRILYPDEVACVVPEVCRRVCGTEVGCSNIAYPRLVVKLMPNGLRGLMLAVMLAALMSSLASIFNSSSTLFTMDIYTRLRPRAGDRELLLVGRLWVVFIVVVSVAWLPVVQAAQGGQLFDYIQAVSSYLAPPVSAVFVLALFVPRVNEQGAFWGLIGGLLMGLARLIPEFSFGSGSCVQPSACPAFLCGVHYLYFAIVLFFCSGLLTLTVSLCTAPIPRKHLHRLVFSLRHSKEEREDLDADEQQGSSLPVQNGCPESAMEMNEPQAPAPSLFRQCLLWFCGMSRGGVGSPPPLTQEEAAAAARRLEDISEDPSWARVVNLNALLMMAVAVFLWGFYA
Protocol: The cells were plated on 100 μl of DMEM containing 10% FBS charged in a 96-well plate in a cell density of 1×10^5 cells/well, followed by culturing overnight at 37° C. […] The buffer solution was removed and replaced with 90 μl of the same buffer solution or the buffer solution containing NaCl or NaCl+Phlorizin (Sigma) in place of N-Methyl-D-Glucamine (NMDG). After one-hour incubation with 10 μl of 1 mM α-methyl glucose (containing 0.02 μCi of [^14C]-α-Methyl Glucose (Amersham Pharmacia Biotech)) per well, the cells were washed 3 times with 200 μl of chilled PBS buffer. The radioactivity of ^14C taken up into the cells was counted with 100 μl of a liquid scintillator added per well.

[2] = system: hamster small intestine; test: glucose uptake in small intestine by the organ culture system; details: hamster jejunal slices, NaCl + 30 μM Phlorizin, 10 minutes at 37° C.
Protocol: The glucose uptake level was determined by the intestinal organ culture system in accordance with the procedures described in Peptides, 19: 1249-1253, 1998 and J. Agric. Food Chem., 48: 5618-5623, 2000. The carotid was cut in mice, rats, guinea pigs and hamsters under ether anesthesia to put them to death. The jejunal region was excised, mesenteric fats were removed, the tract was dissected and the contents were washed and cut in 1 cm length. The jejunal slices were washed 3 times with a buffer solution (125 mM N-Methyl-D-Glucamine (NMDG), 1.2 mM KH2PO4, 2.5 mM CaCl2, 1.2 mM MgSO4, 4 mM Glutamine, 10 mM HEPES (pH 7.2), 0.1 mg/ml BSA) and then transferred to a 48-well plate by one slice/well. […]. The jejunal slices were transferred to a mini-vial for liquid scintillation counting. After 500 μl of tissue solubilizer Solvable (Perkin Elmer LifeSciences) was added thereto, the mixture was treated at 50° C. for 2 hours to solubilize the tissues. After 5 ml of liquid scintillator Ultima Gold-XR (Perkin Elmer LifeSciences) was added, ^14C and ^3H taken up into the jejunal slices were counted. […]

Structure (SMILES): O=C(CCc1ccc(O)cc1)c1c(O)cc(O)cc1O[C@@H]1O[C@H](CO)[C@@H](O)[C@H](O)[C@H]1O [phlorizin]
- Uptake of α-Methyl Glucose (% based on Control Group) ([1]; NaCl + 3 μM phlorizin): 139 ± 23%
- Uptake of α-Methyl Glucose (% based on Control Group) ([1]; NaCl + 100 μM phlorizin): 48 ± 8%
- SGLT activity (α-methyl glucose uptake) resistance to phloridzin [2]: strongly resistant
